From US10457677B2 (priority 2015, dated 2019)
Where two headings read alike, the source gives them in different places.

Tests used:
PI3K p110α/p85α (human) = PI3K p110α/p85α (human) (Homo sapiens (Human), UniProt P42336); test: PI3K p110α/p85α (human), non-radioactive assay (HTRF); format: biochemical; settings: read-out: IC50 (PI3Kalpha)
PI3K p110δ/p85α (human) = PI3K p110δ/p85α (human) (Homo sapiens (Human), UniProt O00329); test: PI3K p110δ/p85α (human), non-radioactive assay (HTRF); format: biochemical; settings: read-out: IC50 (PI3Kdelta)
PI3K p110β/p85α (human) = PI3K p110β/p85α (human) (Homo sapiens (Human), UniProt P42338); test: PI3K p110β/p85α (human), non-radioactive assay (HTRF); format: biochemical; settings: read-out: IC50 (PI3Kbeta)
Protocol: PI3K p110β/p85α (Human), Non-radioactive Assay
PI3K p110β/p85α (human) was incubated in an assay buffer comprising 10 μM phosphati-dylinositol 4,5-bisphosphate and MgATP (concentration as necessary). The reaction was initiated by addition of MgATP solution. After an incubation time of 30 min at room temperature, the reaction was stopped by addition of a solution consisting of EDTA and biotinylated phosphatidylinositol 3,4,5-trisphosphate. Finally, the detection buffer, consisting of a europium-labelled anti-GST monoclonal antibody, a GST-labelled GRP1 PH domain and streptavidin allophycocyanin, was added. The plate was read out via homogeneous time-resolved fluorescence (HTRF) and the corresponding signals were evaluated via the formula HTRF=10000×(Em665nm/Em620nm).

[1] = tested on: phosphorylation of CHK2 (phospho-Thr68) in HCT116 cells; test: Cellular pCHK2 assay: bleomycin-induced phosphorylation of CHK2 (phospho-Thr68), immunofluorescence high-content analysis; format: cell-based, human; settings: Homo sapiens, HCT-116, 4 h, read-out: IC50 (pCHK2)
Procedure, shortened: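 HCT116 cells in DMEM with 10% FCS, incubated overnight at 37° C, then given compounds (1 nM to 30 μM, 0.5% DMSO) together with 10 μM bleomycin. Phospho-Thr68 CHK2 immunostained and imaged by high-content imager; nuclei with pCHK2 above background counted, cell count from propidium iodide DNA stain.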

PI3K (p120γ) (human) = PI3K (p120γ) (human) (Homo sapiens (Human), UniProt P48736); test: PI3K (p120γ) (human), non-radioactive assay (HTRF); format: biochemical; settings: read-out: IC50 (PI3Kgamma)
Procedure, shortened: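 Enzyme was run with 10 μM phosphatidylinositol 4,5-bisphosphate, starting the reaction with MgATP at an unspecified level, for 30 min at room temperature. The stop used EDTA plus biotinylated PIP3, and detection used Eu-anti-GST, GST-GRP1 PH domain and streptavidin-APC. Signal was taken as HTRF = 10000×(Em665nm/Em620nm).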

mTOR (human) = mTOR (human) (Homo sapiens (Human), UniProt P42345); test: mTOR (human) kinase assay, [γ-33P-ATP] filter assay; format: biochemical
Protocol: Furthermore, the effect, in particular inhibition, of other kinases and thus the selectivity of the compounds according to the invention can be determined with the aid of the following assay:
mTOR (human) was incubated with 50 mM HEPES pH 7.5, 1 mM EGTA, 0.01% Tween 20, 2 mg/ml of the substrate, 3 mM MnCl2 and [γ-^33P-ATP] (specific activity approximately 500 cpm/pmol, concentration as necessary). The reaction was initiated by addition of MgATP solution. After incubation at room temperature for 40 minutes, the reaction was stopped by addition of 3% phosphoric acid. 10 μl of the reaction solution were then transferred dropwise onto a P30 filtermat and washed three times for 5 min in 75 mM phosphoric acid and once in methanol, dried and evaluated by means of liquid scintillation counting.

[2] = target: purified human recombinant ATM (ataxia telangiectasia mutated), full length (Homo sapiens (Human), UniProt Q13315); test: ATM kinase assay - determination of ATM inhibition (IC50 ATM), TR-FRET; format: biochemical
Procedure, shortened: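 Full-length enzyme, expressed in a mammalian cell line, pre-incubated 15 min with inhibitor in 25 mM HEPES pH 8.0, 10 mM Mg(CH3COO)2, 1 mM MnCl2, 0,1% BSA, 0,01% Brij 35, 5 mM DTT. Full-length cmyc-p53 (Sf21-expressed) and ATP then added, 30-35 min at 22° C. EDTA stop; p53 S15 phosphorylation read by TR-FRET antibodies.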

Chain of PI3K p110α/p85α (human) (P42336 whole entry): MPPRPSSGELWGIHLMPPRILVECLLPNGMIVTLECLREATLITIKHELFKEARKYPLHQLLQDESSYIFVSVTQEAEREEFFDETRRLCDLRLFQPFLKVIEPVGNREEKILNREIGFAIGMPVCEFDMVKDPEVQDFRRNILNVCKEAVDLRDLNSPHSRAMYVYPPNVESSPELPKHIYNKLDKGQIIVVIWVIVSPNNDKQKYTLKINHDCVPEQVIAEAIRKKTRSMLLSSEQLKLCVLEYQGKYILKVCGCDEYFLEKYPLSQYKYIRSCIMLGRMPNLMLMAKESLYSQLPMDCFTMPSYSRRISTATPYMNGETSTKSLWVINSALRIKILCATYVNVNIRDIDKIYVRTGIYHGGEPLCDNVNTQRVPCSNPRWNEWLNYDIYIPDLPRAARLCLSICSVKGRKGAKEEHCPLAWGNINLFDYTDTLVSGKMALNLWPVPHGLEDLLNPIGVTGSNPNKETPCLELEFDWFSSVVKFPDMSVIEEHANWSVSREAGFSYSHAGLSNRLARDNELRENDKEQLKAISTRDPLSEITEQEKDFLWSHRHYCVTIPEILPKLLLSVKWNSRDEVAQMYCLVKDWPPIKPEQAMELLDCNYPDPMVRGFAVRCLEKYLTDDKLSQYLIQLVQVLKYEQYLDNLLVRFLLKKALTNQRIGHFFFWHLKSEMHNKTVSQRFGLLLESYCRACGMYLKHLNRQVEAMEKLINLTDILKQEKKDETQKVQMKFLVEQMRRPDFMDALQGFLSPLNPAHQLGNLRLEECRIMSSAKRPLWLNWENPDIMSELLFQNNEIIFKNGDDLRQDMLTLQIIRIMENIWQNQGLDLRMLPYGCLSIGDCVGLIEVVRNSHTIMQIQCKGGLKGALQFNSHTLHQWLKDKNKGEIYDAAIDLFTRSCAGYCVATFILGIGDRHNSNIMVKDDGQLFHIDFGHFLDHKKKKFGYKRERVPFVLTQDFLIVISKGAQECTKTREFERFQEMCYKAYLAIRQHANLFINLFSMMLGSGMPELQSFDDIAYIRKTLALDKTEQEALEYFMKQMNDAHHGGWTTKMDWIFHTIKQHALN
Chain of PI3K p110α/p85α (human) (P27986 whole entry partner): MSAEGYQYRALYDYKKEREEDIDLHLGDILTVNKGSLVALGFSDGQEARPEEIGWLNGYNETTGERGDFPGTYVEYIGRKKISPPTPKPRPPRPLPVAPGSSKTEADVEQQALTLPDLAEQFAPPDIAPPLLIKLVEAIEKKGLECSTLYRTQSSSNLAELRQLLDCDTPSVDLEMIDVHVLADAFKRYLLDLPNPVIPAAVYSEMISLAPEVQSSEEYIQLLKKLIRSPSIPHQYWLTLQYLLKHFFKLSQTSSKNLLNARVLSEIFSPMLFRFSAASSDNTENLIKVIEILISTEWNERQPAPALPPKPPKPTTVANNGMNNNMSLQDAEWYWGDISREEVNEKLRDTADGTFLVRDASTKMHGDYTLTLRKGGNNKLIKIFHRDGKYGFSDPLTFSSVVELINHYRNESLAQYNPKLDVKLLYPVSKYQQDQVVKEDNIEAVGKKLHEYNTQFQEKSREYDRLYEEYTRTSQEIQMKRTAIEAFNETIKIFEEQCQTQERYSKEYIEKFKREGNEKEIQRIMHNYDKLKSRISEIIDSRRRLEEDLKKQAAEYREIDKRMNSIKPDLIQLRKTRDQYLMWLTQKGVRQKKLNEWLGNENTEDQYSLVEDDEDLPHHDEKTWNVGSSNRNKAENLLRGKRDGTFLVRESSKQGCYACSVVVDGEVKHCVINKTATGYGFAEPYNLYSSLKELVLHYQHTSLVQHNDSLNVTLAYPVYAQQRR
Chain of purified human recombinant ATM (ataxia telangiectasia mutated), full length (Q13315 whole entry, change not shown): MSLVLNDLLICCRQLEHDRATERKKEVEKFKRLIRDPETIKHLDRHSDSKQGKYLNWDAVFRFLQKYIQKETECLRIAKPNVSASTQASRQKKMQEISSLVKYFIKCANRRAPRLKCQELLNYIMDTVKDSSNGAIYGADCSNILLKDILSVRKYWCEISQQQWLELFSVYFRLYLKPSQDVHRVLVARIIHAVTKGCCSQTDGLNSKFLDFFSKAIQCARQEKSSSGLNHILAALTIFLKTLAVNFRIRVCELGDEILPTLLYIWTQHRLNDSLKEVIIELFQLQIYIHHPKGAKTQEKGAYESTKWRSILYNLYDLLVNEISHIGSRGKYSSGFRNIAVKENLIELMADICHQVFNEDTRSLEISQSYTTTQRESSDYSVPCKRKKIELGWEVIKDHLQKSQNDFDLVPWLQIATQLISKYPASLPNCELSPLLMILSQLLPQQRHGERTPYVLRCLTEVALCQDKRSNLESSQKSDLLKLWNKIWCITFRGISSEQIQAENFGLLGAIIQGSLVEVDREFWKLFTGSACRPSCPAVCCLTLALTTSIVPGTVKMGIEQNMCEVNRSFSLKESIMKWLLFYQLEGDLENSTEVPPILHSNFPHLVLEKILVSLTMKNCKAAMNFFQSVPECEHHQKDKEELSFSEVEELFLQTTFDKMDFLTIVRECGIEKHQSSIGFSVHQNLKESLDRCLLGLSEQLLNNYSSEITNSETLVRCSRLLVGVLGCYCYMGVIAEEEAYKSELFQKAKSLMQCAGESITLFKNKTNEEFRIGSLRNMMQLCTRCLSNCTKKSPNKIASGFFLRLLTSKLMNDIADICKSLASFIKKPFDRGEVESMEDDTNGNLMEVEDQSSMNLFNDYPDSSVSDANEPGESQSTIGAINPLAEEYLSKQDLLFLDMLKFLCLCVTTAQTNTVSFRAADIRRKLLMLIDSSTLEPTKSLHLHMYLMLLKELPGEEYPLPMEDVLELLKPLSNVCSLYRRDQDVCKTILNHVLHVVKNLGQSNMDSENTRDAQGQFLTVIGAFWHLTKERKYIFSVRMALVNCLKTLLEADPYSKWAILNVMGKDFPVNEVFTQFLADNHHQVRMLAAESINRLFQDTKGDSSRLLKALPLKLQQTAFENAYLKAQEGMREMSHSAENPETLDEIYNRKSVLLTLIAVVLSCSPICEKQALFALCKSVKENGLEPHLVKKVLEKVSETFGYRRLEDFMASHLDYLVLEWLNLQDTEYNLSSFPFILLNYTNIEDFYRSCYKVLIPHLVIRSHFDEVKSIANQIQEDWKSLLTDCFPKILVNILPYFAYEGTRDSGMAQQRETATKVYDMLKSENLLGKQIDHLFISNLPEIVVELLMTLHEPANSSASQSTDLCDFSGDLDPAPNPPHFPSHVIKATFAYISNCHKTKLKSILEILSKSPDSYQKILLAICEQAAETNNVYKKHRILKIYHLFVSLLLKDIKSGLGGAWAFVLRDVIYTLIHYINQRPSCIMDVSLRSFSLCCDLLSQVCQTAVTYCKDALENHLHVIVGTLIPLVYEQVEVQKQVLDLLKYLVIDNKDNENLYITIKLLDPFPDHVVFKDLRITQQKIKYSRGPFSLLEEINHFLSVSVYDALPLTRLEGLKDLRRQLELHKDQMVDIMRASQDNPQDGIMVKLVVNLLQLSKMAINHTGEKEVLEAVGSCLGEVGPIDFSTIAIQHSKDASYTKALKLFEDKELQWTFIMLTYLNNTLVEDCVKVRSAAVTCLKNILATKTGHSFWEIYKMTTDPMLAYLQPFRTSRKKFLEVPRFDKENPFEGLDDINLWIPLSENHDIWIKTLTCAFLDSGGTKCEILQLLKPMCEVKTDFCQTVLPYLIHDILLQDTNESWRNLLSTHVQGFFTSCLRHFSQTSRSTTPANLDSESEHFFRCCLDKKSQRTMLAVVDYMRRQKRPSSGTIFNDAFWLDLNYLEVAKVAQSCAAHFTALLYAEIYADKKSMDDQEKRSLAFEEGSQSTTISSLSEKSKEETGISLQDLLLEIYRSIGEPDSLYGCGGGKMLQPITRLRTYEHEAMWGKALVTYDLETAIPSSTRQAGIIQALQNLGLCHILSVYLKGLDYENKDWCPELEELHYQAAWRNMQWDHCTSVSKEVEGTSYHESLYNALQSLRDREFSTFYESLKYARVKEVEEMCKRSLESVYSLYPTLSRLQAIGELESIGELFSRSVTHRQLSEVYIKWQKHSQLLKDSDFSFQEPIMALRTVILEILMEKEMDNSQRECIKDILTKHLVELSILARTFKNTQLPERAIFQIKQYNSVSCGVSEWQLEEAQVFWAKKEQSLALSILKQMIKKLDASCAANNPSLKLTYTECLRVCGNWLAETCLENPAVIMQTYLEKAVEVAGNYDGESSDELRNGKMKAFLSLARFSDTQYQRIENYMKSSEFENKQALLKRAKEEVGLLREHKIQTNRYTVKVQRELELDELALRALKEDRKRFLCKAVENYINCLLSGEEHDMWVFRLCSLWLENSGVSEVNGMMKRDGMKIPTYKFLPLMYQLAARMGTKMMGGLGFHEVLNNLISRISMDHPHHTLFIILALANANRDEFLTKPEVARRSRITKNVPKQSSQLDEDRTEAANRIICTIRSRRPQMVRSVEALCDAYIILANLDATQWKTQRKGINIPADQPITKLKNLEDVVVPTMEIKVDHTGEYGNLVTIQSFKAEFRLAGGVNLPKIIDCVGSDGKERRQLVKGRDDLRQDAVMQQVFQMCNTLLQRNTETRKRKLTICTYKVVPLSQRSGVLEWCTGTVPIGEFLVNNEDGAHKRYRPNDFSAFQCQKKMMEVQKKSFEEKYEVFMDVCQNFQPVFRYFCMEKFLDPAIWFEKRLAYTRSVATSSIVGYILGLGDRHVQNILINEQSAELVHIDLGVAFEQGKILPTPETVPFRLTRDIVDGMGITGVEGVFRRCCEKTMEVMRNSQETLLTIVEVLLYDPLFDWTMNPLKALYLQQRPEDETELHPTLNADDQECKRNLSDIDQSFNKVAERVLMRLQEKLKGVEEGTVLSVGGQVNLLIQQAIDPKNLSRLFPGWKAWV

SMILES	IC50 (PI3K p110α/p85α (human))	IC50 (PI3K p110δ/p85α (human))	IC50 (PI3K p110β/p85α (human))	IC50 [1]	IC50 (PI3K (p120γ) (human))	IC50 (mTOR (human))	IC50 [2]	IC50 ([2]; 10 μM ATP, substrate p53)
COc1cc2ncc3c(c2cc1-c1cnn(C)c1)n(-c1ccncc1C#N)c(=O)n3C [Compound Example 46, 4-[7-Methoxy-3-methyl-8-(1-methyl-1H-pyrazol-4-yl)-2-oxo-2,3-dihydroimidazo-[4,5-c]quinolin-1-yl]-nicotinonitrile]	> 30 µM	> 30 µM	> 30 µM	0.2 to 1 µM	> 30 µM	> 30 µM	< 0.05 µM	< 0.05 µM
CCc1cncc(F)c1-n1c(=O)n(C)c2cnc3cc(OC)c(-c4cnn(CC)c4)cc3c21 [Compound Example 25, 1-(3-Ethyl-5-fluoropyridin-4-yl)-8-(1-ethyl-1H-pyrazol-4-yl)-7-methoxy-3-methyl-1,3-dihydroimidazo[4,5-c] quinolin-2-one]	> 30 µM	> 30 µM	> 30 µM	< 0.2 µM	> 30 µM	> 30 µM	< 0.001 µM	< 0.001 µM
COc1cc2ncc3c(c2cc1-c1cnn(C)c1)n(-c1ncc(F)cc1F)c(=O)n3C [Compound Example 1, 1-(3,5-Difluoropyridin-2-yl)-7-methoxy-3-methyl-8-(l-methyl-1H-pyrazol-4-yl)-1,3-dihydroimidazo[4,5-c] quinolin-2-one]	> 30 µM	> 30 µM	> 30 µM	< 0.2 µM	> 30 µM	> 30 µM	< 0.01 µM	< 0.01 µM
COc1cc2ncc3c(c2cc1-c1cn(C)nc1C)n(-c1c(F)cncc1OC)c(=O)n3C [Compound Example 4, 8-(1,3-Dimethyl-1H-pyrazol-4-yl)-1-(3-fluoro-5-methoxy-pyridin-4-yl)-7-methoxy-3-methyl-1,3-dihydroimidazo-[4,5-c]quinolin-2-one]	> 5 µM	> 10 µM	> 30 µM	< 0.2 µM	> 30 µM	> 30 µM		
COc1cc2ncc3c(c2cc1-c1cnn(C)c1)n(-c1cncnc1)c(=O)n3C [Compound Example 57, 7-Methoxy-3-methyl-8-(1-methyl-1H-pyrazol-4-yl)-1-pyrimidin-5-yl-1,3-dihydro-imidazo[4,5-c]quinolin-2-one]	> 30 µM	> 30 µM	> 30 µM	0.2 to 1 µM	> 30 µM	> 30 µM	< 0.05 µM	< 0.05 µM
COc1cc2ncc3c(c2cc1-c1cn[nH]c1)n(-c1ncc(C)cc1F)c(=O)n3C [Compound Example 20, 1-(3-Fluoro-5-methylpyridin-2-yl)-7-methoxy-3-methyl-8-(1H-pyrazol-4-yl)-1,3-dihydroimidazo[4,5-c] quinolin-2-one]	> 30 µM	> 30 µM	> 30 µM	< 0.2 µM	> 30 µM	> 30 µM	< 0.001 µM	< 0.001 µM
COc1cc2ncc3c(c2cc1-c1cn[nH]c1)n(-c1ccncc1F)c(=O)n3C [Compound Example 9, 1-(3-Fluoropyridin-4-yl)-7-methoxy-3-methyl-8-(1H-pyrazol-4-yl)-1,3-dihydro-imidazo[4,5-c]quinolin-2-one]	> 30 µM	> 30 µM	> 30 µM	< 0.2 µM	> 30 µM	> 10 µM	< 0.001 µM	< 0.001 µM
